21 molecules from US9656990B2, “Cathepsin cysteine protease inhibitors” (Merck Sharp & Dohme Corp., priority 2014, dated 2017) can be followed below.

One assay addresses human cathepsin K (UniProt P43236, Y175D/V274L, species not given). The assay can be described thus: Cathepsin K Assay. In kind it is biochemical. Conditions: IP from dose response curve; Z-Leu-Arg-AMC substrate, pH 5.5; read-out: hrbCat K (IP (nM)).
The target in a further assay is T1, human cathepsin F (Homo sapiens, UniProt Q9UBX1).
T1 sequence (Q9UBX1 271-484): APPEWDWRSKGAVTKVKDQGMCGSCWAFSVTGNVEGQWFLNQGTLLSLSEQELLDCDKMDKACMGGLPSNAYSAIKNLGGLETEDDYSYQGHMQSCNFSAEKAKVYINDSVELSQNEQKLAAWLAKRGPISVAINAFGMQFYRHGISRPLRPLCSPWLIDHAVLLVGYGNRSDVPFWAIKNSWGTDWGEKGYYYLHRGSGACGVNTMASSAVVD
The assay can be described thus: Cathepsin F Assay. In kind it is biochemical. Conditions: IP from dose response curve; Z-Phe-Arg-AMC substrate, pH 5.5; read-out: hCat F (IP (nM)). On the procedure:
Serial dilutions (1/3) from 500 μM down to 0.025 μM of test compounds were prepared in dimethyl sulfoxide (DMSO). Then 0.5 μL of DMSO from each dilution were added to 18.75 μL of assay buffer (MES, 50 mM (pH 5.5); EDTA, 2.5 mM; DTT, 2.5 mM and 10% DMSO) containing human cathepsin F (10 nM) in assay buffer solution. The assay solutions were mixed for 5-10 seconds on a shaker plate and incubated for 15 minutes at room temperature. Z-Phe-Arg-AMC (8 μM) in 6.25 μL of assay buffer was added to the assay solutions. Hydrolysis of the coumarin leaving group (AMC) was followed by spectrofluorometry (Exλ=360 nm; Emλ=460 nm) for 20 minutes. Percent of inhibition were calculated by fitting experimental values to standard mathematical model for dose response curve.

For the molecule `CS(=O)(=O)c1ccc(-c2cn(-c3ccccc3)nc2C2CCC(F)(F)CC2C(=O)NCC#N)cc1` (racemic) [Example 76, (1R,2R and 1S,2S)-N-(cyanomethyl)-5,5-difluoro-2-(4-(4-(methylsulfonyl)phenyl)-1-phenyl-1H-pyrazol-3-yl)cyclohexanecarboxamide], the values for the IC50 on human cathepsin K and at human cathepsin F were 0.8 nM and 11 nM, respectively.

`CS(=O)(=O)c1ccc(-c2cn(-c3ccc(F)cc3)nc2C2CCC(F)(F)CC2C(=O)NCC#N)cc1` (racemic) [Example 77, (1R,2R and 1S,2S)-N-(cyanomethyl)-5,5-difluoro-2-(1-(4-fluorophenyl)-4-(4-(methylsulfonyl)phenyl)-1H-pyrazol-3-yl)cyclohexanecarboxamide]: the results for the IC50 at human cathepsin K and at human cathepsin F were 1.24 nM and 9 nM, respectively.

As to `CS(=O)(=O)c1ccc(-c2cn(-c3ccc4ccccc4c3)nc2C2CCC(F)(F)CC2C(=O)NCC#N)cc1` (racemic) [Example 78, (1R,2R and 1S,2S)-N-(cyanomethyl)-5,5-difluoro-2-(4-(4-(methylsulfonyl)phenyl)-1-(naphthalen-2-yl)-1H-pyrazol-3-yl)cyclohexanecarboxamide], the IC50 at human cathepsin K came out at 2.12 nM; at human cathepsin F it was 4 nM.

For `N#CCNC(=O)C1CC(F)(F)CCC1c1nn(-c2ccc(F)cc2)cc1-c1ccc(N2CCS(=O)(=O)CC2)cc1` (racemic) [Example 79, (1R,2R and 1S,2S)-N-(cyanomethyl)-2-(4-(4-(1,1-dioxidothiomorpholino)phen-yl)-1-(4-fluorophenyl)-1H-pyrazol-3-yl)-5,5-difluorocyclohexanecarbox-amide], the IC50 came out at 0.81 nM on human cathepsin K and 17 nM at human cathepsin F.

For the molecule `N#CC1(NC(=O)C2CC(F)(F)CCC2c2nn(-c3ccc(F)cc3)cc2-c2ccc(N3CCS(=O)(=O)CC3)cc2)CC1` (racemic) [Example 80, (1R,2R and 1S,2S)-N-(1-cyanocyclopropyl)-2-(4-(4-(1,1-dioxidothiomorpholino)phen-yl)-1-(4-fluorophenyl)-1H-pyrazol-3-yl)-5,5-difluorocyclohexanecarbox-amide], the IC50 was 1 nM at human cathepsin K and 35 nM at human cathepsin F.

For the molecule `CC(C#N)NC(=O)[C@@H]1CCC(F)(F)C[C@H]1c1nn(-c2ccc(F)cn2)cc1-c1ccc(N2CCS(=N)(=O)CC2)cc1` (single isomer, unassigned) [Example 22, (1R,2R)-N-((R or S)-1-cyanoethyl)-4,4-difluoro-2-(1-(5-fluoropyridin-2-yl)-4-(4-(1-imino-1-oxidothiomorpholino)phenyl)-1H-pyrazol-3-yl)cyclohexanecarboxamide], on human cathepsin K, the IC50 is 264 nM.

As to `CN=S1(=O)CCN(c2ccc(-c3cn(-c4ccc(F)cn4)nc3[C@@H]3CC(F)(F)CC[C@H]3C(=O)NC(C)C#N)cc2)CC1` (single isomer, unassigned) [Example 24, (1R,2R)-N-((R or S)-1-cyanoethyl)-4,4-difIuoro-2-(1-(5-fluoropyridin-2-yl)-4-(4-(1-(methylimino)-1-oxidothiomorpholino)phenyl)-1H-pyrazol-3-yl)cyclohexanecarboxamide], the IC50 at human cathepsin K was determined as 169 nM.

As to `CC1(C)CC[C@@H](c2nn(-c3ccc(F)cc3)cc2-c2ccc(N3CCS(=O)(=O)CC3)cc2)[C@H](C(=O)NC2(C#N)CC2)C1` (single isomer, unassigned) [Example 126, (1R,2R) or (1S,2S)-N-(1-cyanocyclopropyl)-2-(4-(4-(1,1-dioxidothiomorpholino)phen-yl)-1-(4-fluorophenyl)-1H-pyrazol-3-yl)-5,5-dimethylcyclohexanecarbox-amide], the IC50 on human cathepsin K was 116 nM.

Take `C[C@@H](C#N)NC(=O)[C@@H]1C[C@@H](F)CC[C@H]1c1nn(-c2ncccc2F)cc1-c1ccc(N2CCS(=O)(=O)CC2)cc1` [Example 12, (1R,2R,5S)—N—((S)-1-Cyanoethyl)-2-(4-(4-(1,1-dioxidothiomorpholino)phenyl)-1-(3-fluoropyridin-2-yl)-1H-pyrazol-3-yl)-5-fluorocyclohexanecarboxamide]: the IC50 at human cathepsin K was 6.89 nM.

Regarding `N#CC1(NC(=O)[C@@H]2CCC(F)(F)C[C@H]2c2nn(-c3ncccc3F)cc2-c2ccc(N3CCS(=N)(=O)CC3)cc2)CC1` [Example 39, (1R,2R)-N-(1-cyanocyclopropyl)-4,4-difluoro-2-(1-(3-fluoropyridin-2-yl)-4-(4-(1-imino-1-oxidothiomorpholino)phenyl)-1H-pyrazol-3-yl)cyclohexanecarboxamide], at human cathepsin K, the IC50 turned out to be 48.7 nM.

For the molecule `CN=S1(=O)CCN(c2ccc(-c3cn(-c4ncccc4F)nc3[C@@H]3CC(F)(F)CC[C@H]3C(=O)NC3(C#N)CC3)cc2)CC1` [Example 40, (1R,2R)-N-(1-cyanocyclopropyl)-4,4-difluoro-2-(1-(3-fluoropyridin-2-yl)-4-(4-(1-(methylimino)-1-oxidothiomorpholino)phenyl)-1H-pyrazol-3-yl)cyclohexanecarboxamide], the IC50 at human cathepsin K was 22 nM.

`CC(C)[C@@H](C#N)NC(=O)[C@@H]1C[C@@H](F)CC[C@H]1c1nn(-c2ncccc2F)cc1-c1ccc(N2CCS(=O)(=O)CC2)cc1` [Example 49, (1R,2R,5S)-N-((S)-1-cyano-2-methylpropyl)-2-(4-(4-(1,1-dioxidothiomorpholino)phen-yl)-1-(3-fluoropyridin-2-yl)-1H-pyrazol-3-yl)-5-fluorocyclohexanecarboxamide]: the IC50 at human cathepsin K was 8.35 nM.

On to `CN=S1(=O)CCN(c2ccc(-c3cn(-c4ncccc4F)nc3[C@@H]3CC[C@H](F)C[C@H]3C(=O)NC3(C#N)CC3)cc2)CC1` [Example 53, (1R,2R,5S)-N-(1-cyanocyclopropyl)-5-fluoro-2-(1-(3-fluoropyridin-2-yl)-4-(4-(1-(methylimino)-1-oxidothiomorpholino)phenyl)-1H-pyrazol-3-yl)cyclohexanecarboxamide], for which the IC50 at human cathepsin K was determined as 6.54 nM.

Consider `CN=S1(=O)CCN(c2ccc(-c3cn(-c4ncccc4F)nc3[C@@H]3CC[C@H](F)C[C@H]3C(=O)N[C@@H](C)C#N)cc2)CC1` [Example 54, (1R,2R,5S)-N-((S)-1-cyanoethyl)-5-fluoro-2-(1-(3-fluoropyridin-2-yl)-4-(4-(1-(methylimino)-1-oxidothiomorpholino)phenyl)-1H-pyrazol-3-yl)cyclohexanecarboxamide], for which, on human cathepsin K, the IC50 stood at 7.89 nM.

Consider `CN=S1(=O)CCN(c2ccc(-c3cn(-c4ncccc4F)nc3[C@@H]3CC[C@H](F)C[C@H]3C(=O)N[C@H](C#N)C(C)C)cc2)CC1` [Example 55, (1R,2R,5S)-N-((S)-1-cyano-2-methylpropyl)-5-fluoro-2-(1-(3-fluoropyridin-2-yl)-4-(4-(1-(methylimino)-1-oxidothiomorpholino)phenyl)-1H-pyrazol-3-yl)cyclohexanecarboxamide], for which, on human cathepsin K, the IC50 was 14.3 nM.

On to `N#CC1(NC(=O)[C@@H]2C[C@@H](F)CC[C@H]2c2nn(-c3ncccc3F)cc2-c2ccc(N3CCS(=N)(=O)CC3)cc2)CC1` [Example 56, (1R,2R,5S)-N-(1-cyanocyclopropyl)-5-fluoro-2-(1-(3-fluoropyridin-2-yl)-4-(4-(1-imino-1-oxidothiomorpholino)phenyl)-1H-pyrazol-3-yl)cyclohexanecarboxamide], for which, at human cathepsin K, the IC50 was 5.69 nM.

In the case of `CC(C)[C@@H](C#N)NC(=O)[C@@H]1C[C@@H](F)CC[C@H]1c1nn(-c2ncccc2F)cc1-c1ccc(N2CCS(=N)(=O)CC2)cc1` [Example 58, (1R,2R,5S)-N-((S)-1-cyano-2-methylpropyl)-5-fluoro-2-(1-(3-fluoropyridin-2-yl)-4-(4-(1-imino-1-oxidothiomorpholino)phenyl)-1H-pyrazol-3-yl)cyclohexanecarboxamide], the IC50 on human cathepsin K stood at 16 nM.

On to `N#CC1(NC(=O)[C@@H]2CCC(F)(F)C[C@H]2c2nn(-c3ccc(C(F)(F)F)cn3)cc2-c2ccc(N3CCS(=O)(=O)CC3)cc2)CC1` [Example 149, (1R,2R)-N-(1-cyanocyclopropyl)-2-(4-(4-(1,1-dioxidothiomorpholino)phen-yl)-1-(5-(trifluoromethyl)pyridin-2-yl)-1H-pyrazol-3-yl)-4,4-difluorocyclohexanecarbox-amide], for which, at human cathepsin K, the IC50 was 2.58 nM.

Regarding `N#CC1(NC(=O)[C@@H]2CCC(F)(F)C[C@H]2c2nn(-c3ccc(Cl)cn3)cc2-c2ccc(N3CCS(=O)(=O)CC3)cc2)CC1` [Example 150, (1R,2R)-2-(1-(5-chloropyridin-2-yl)-4-(4-(1,1-dioxidothiomorpholino)phen-yl)-1H-pyrazol-3-yl)-N-(1-cyanocyclopropyl)-4,4-difluorocyclohexanecarbox-amide], at human cathepsin K, the IC50 is 1.43 nM.

Regarding `N#CC1(NC(=O)[C@@H]2CCC(F)(F)C[C@H]2c2nn(-c3ccc(F)cn3)cc2-c2ccc(N3CCS(=O)(=O)CC3)cc2)CC1` [Example 151, (1R,2R)-N-(1-cyanocyclopropyl)-2-(4-(4-(1,1-dioxidothiomorpholino)phen-yl)-1-(5-fluoropyridin-2-yl)-1H-pyrazol-3-yl)-4,4-difluorocyclohexanecarbox-amide], on human cathepsin K, the IC50 is 2.44 nM.

For `N#CC1(NC(=O)[C@@H]2CCCC[C@H]2c2nn(-c3ncccn3)cc2-c2ccc(N3CCS(=O)(=O)CC3)cc2)CC1` [Example 160, (1R,2R)-N-(1-cyanocyclopropyl)-2-(4-(4-(1,1-dioxidothiomorpholino)phen-yl)-1-(pyrimidin-2-yl)-1H-pyrazol-3-yl)cyclohexanecarboxamide], the IC50 on human cathepsin K is 34.7 nM.
